Source: DBAASP
Values after ≈ are worked out from the molar mass of the structure shown. Values joined by “and” are separate entries in the source; they are usually repeats but may differ in a detail not shown here. Equal values may be shown once.

Assays:
Experiment in all cases: ≥ marks a high value that may be exact or a test limit, other limits are often not marked, values filed in µg/mL are converted to µM
[1] = test system: Enterococcus faecalis ATCC 29212
[2] = test system: Pseudomonas aeruginosa ATCC 27853
Acinetobacter baumannii = test system: Acinetobacter baumannii
[3] = test system: Staphylococcus aureus ATCC 29213
[4] = test system: Escherichia coli ATCC 25922
[5] = test system: Candida albicans ATCC 10231
[6] = test system: Bacillus subtilis ATCC 23857
[7] = test system: Pseudomonas aeruginosa PAO1
[8] = test system: Klebsiella pneumoniae ATCC 13883
[9] = test system: Staphylococcus aureus USA 300
[10] = test system: Staphylococcus aureus ATCC 25923
[11] = test system: Acinetobacter baumannii ATCC 19606
[12] = test system: Klebsiella pneumoniae ATCC 700603
[13] = test system: Staphylococcus epidermidis ATCC 12228
[14] = test system: Pseudomonas aeruginosa ATCC 9027
[15] = test system: Salmonella enterica subsp. enterica serovar Typhimurium C77-31
Escherichia coli UB1005 = test system: Escherichia coli UB1005
[16] = test system: Salmonella enterica subsp. enterica serovar Typhimurium ATCC 14028
Klebsiella pneumoniae = test system: Klebsiella pneumoniae
Escherichia coli = test system: Escherichia coli
Staphylococcus aureus = test system: Staphylococcus aureus
[17] = test system: Staphylococcus aureus ATCC 33591

## CC(C)C[C@H](NC(=O)[C@H](CC(C)C)NC(=O)[C@H](CCCN=C(N)N)NC(=O)[C@H](CCCCN)NC(=O)[C@H](CCCN=C(N)N)NC(=O)[C@H](CC(C)C)NC(=O)[C@H](CCCCN)NC(=O)[C@H](CCCN=C(N)N)NC(=O)[C@H](CC(C)C)NC(=O)[C@@H](N)CS)C(=O)N[C@@H](CS)C(=O)O [CLRKLRKRLLC]
[1]
  MIC: > 22.8 µM
[2]
  MIC: > 22.8 µM
Acinetobacter baumannii
  MIC: 22.8 µM (≈ 32 µg/mL)
[3]
  MIC: > 22.8 µM
[4]
  MIC: 17.1 µM (≈ 24 µg/mL)

## NC(=O)[C@H](CCCN=C(N)N)NC(=O)[C@H](CCCN=C(N)N)NC(=O)[C@H](Cc1ccccc1)NC(=O)[C@H](Cc1ccccc1)NC(=O)[C@H](CCCN=C(N)N)NC(=O)[C@H](CCCN=C(N)N)NC(=O)[C@H](Cc1ccccc1)NC(=O)[C@@H](N)Cc1ccccc1 [FFRRFFRR]
[5]
  MIC: > 406 µM
[6]
  MIC: ≥ 102 µM

## CC(C)C[C@H](NC(=O)[C@H](CC(C)C)NC(=O)[C@H](CCCCN)NC(=O)[C@H](CC(C)C)NC(=O)CNC(=O)[C@H](CC(C)C)NC(=O)[C@H](CO)NC(=O)[C@H](CC(C)C)NC(=O)[C@H](CC(C)C)NC(=O)[C@H](CO)NC(=O)[C@H](CC(C)C)NC(=O)[C@H](CC(C)C)NC(=O)CN)C(N)=O [GLLSLLSLGLKLL]
[7]
  MIC: > 25 µM
[8]
  MIC: 25 µM (≈ 33.5 µg/mL)
[9]
  MIC: 0.8 µM (≈ 1.07 µg/mL)
[4]
  MIC: > 25 µM

## CC(C)C[C@H](NC(=O)CN)C(=O)N[C@@H](CC(C)C)C(=O)N[C@@H](CO)C(=O)N[C@@H](CC(C)C)C(=O)N[C@@H](CC(C)C)C(=O)N[C@@H](CO)C(=O)N[C@@H](CC(C)C)C(=O)N[C@@H](CC(C)C)C(=O)NCC(=O)N[C@@H](CCCCN)C(=O)N[C@@H](CC(C)C)C(=O)N[C@@H](C)C(N)=O [GLLSLLSLLGKLA]
[7]
  MIC: > 25 µM
[8]
  MIC: 17.7 µM (≈ 22.9 µg/mL)
[9]
  MIC: 1.56 µM (≈ 2.02 µg/mL)
[4]
  MIC: 2.16 µM (≈ 2.8 µg/mL)

## CC[C@H](C)[C@H](NC(=O)[C@H](CCCN=C(N)N)NC(=O)[C@H](CCCCN)NC(=O)[C@H](Cc1ccccc1)NC(=O)[C@H](Cc1c[nH]c2ccccc12)NC(=O)CN)C(=O)N[C@@H](CCCCN)C(=O)N[C@H](C(=O)N[C@@H](Cc1ccccc1)C(=O)N[C@@H](Cc1c[nH]c2ccccc12)C(N)=O)[C@@H](C)O [GWFKRIKTFW]
[1]
  MIC: 64 µM (≈ 87.5 µg/mL)
[2]
  MIC: 8 µM (≈ 10.9 µg/mL)
[6]
  MIC: 4 µM (≈ 5.47 µg/mL)
[10]
  MIC: 16 µM (≈ 21.9 µg/mL)
[11]
  MIC: 64 µM (≈ 87.5 µg/mL)
[4]
  MIC: 16 µM (≈ 21.9 µg/mL)
[12]
  MIC: 32 µM (≈ 43.8 µg/mL)
[13]
  MIC: 4 µM (≈ 5.47 µg/mL)

## CC[C@H](C)[C@H](N)C(=O)N[C@H](C(=O)N[C@H](C(=O)N[C@@H](CCCCN)C(=O)N[C@@H](CO)C(=O)N[C@@H](CC(C)C)C(=O)NCC(=O)N[C@@H](CCCCN)C(=O)N[C@@H](Cc1ccccc1)C(=O)N[C@@H](CC(C)C)C(=O)N[C@@H](CCCCN)C(=O)N[C@@H](CC(N)=O)C(=O)N[C@H](C(=O)NCC(=O)NCC(=O)N[C@@H](Cc1ccccc1)C(=O)N[C@@H](C)C(=O)NCC(=O)O)C(C)C)[C@@H](C)CC)C(C)C [IVIKSLGKFLKNVGGFAG]
Acinetobacter baumannii
  MIC: ≥ 64 µM
[10]
  MIC: > 64 µM
[4]
  MIC: > 64 µM
[12]
  MIC: > 64 µM
[14]
  MIC: > 64 µM

## NCCCC[C@H](NC(=O)[C@H](CCCCN)NC(=O)[C@H](Cc1c[nH]c2ccccc12)NC(=O)[C@H](CCCN=C(N)N)NC(=O)[C@H](CCCCN)NC(=O)[C@H](Cc1c[nH]c2ccccc12)NC(=O)[C@H](Cc1c[nH]c2ccccc12)NC(=O)[C@@H](N)CCCCN)C(=O)N[C@@H](Cc1c[nH]c2ccccc12)C(=O)N[C@@H](Cc1c[nH]c2ccccc12)C(N)=O [KWWKRWKKWW]
[1]
  MIC: 16 µM (≈ 25.9 µg/mL)
[2]
  MIC: 8 µM (≈ 12.9 µg/mL)
[6]
  MIC: 4 µM (≈ 6.47 µg/mL)
[10]
  MIC: 8 µM (≈ 12.9 µg/mL)
[11]
  MIC: 8 µM (≈ 12.9 µg/mL)
[4]
  MIC: 16 µM (≈ 25.9 µg/mL)
[12]
  MIC: 16 µM (≈ 25.9 µg/mL)
[13]
  MIC: 8 µM (≈ 12.9 µg/mL)

## CC(C)C[C@H](NC(=O)[C@H](C)NC(=O)[C@H](CCCCN)NC(=O)[C@H](CC(C)C)NC(=O)[C@H](CC(N)=O)NC(=O)[C@@H](N)CC(C)C)C(=O)N[C@@H](CC(C)C)C(=O)N[C@@H](C)C(=O)N[C@H](C(=O)N[C@@H](C)C(=O)N[C@@H](CCCCN)C(N)=O)C(C)C [LNLKALLAVAK]
[6]
  MIC: ≥ 128 µM
[10]
  MIC: > 128 µM
[4]
  MIC: > 128 µM
[12]
  MIC: > 128 µM
[14]
  MIC: > 128 µM

## CC(C)C[C@H](NC(=O)[C@H](CCCN=C(N)N)NC(=O)[C@H](CC(C)C)NC(=O)[C@H](CCCN=C(N)N)NC(=O)[C@@H](NC(=O)[C@H](CCCCN)NC(=O)[C@H](CC(C)C)NC(=O)[C@H](CCCN=C(N)N)NC(=O)[C@H](CC(C)C)NC(=O)[C@H](CCCN=C(N)N)NC(=O)[C@@H](N)CC(C)C)[C@@H](C)O)C(=O)N[C@@H](CCCCN)C(N)=O [LRLRLKTRLRLK]
[10]
  MIC: 32 µM (≈ 50.1 µg/mL)
[15]
  MIC: 16 µM (≈ 25 µg/mL)
[3]
  MIC: 32 µM (≈ 50.1 µg/mL)
Escherichia coli UB1005
  MIC: 4 µM (≈ 6.26 µg/mL)
[4]
  MIC: 4 µM (≈ 6.26 µg/mL)
[13]
  MIC: 64 µM (≈ 100 µg/mL)

## CC(C)C[C@H](NC(=O)[C@H](CCCN=C(N)N)NC(=O)[C@H](CC(N)=O)NC(=O)[C@H](C)NC(=O)[C@H](CCCN=C(N)N)NC(=O)[C@H](CC(C)C)NC(=O)[C@H](Cc1c[nH]c2ccccc12)NC(=O)[C@H](CC(C)C)NC(=O)[C@H](CCCN=C(N)N)NC(=O)[C@H](CCCN=C(N)N)NC(=O)[C@@H](N)CC(C)C)C(N)=O [LRRLWLRANRL]
[1]
  MIC: > 128 µM
[2]
  MIC: > 128 µM
[15]
  MIC: ≥ 128 µM
[3]
  MIC: 128 µM (≈ 188 µg/mL)
[4]
  MIC: 128 µM (≈ 188 µg/mL)
[13]
  MIC: > 128 µM

## CC(C)C[C@H](NC(=O)[C@H](CCCN=C(N)N)NC(=O)[C@H](CCCN=C(N)N)NC(=O)[C@H](C)NC(=O)[C@H](Cc1c[nH]c2ccccc12)NC(=O)CNC(=O)[C@H](CCCN=C(N)N)NC(=O)[C@@H](N)CCCN=C(N)N)C(=O)N[C@@H](Cc1ccccc1)C(=O)N[C@@H](Cc1ccccc1)C(=O)N[C@@H](C)C(=O)N[C@@H](Cc1ccc(O)cc1)C(=O)NCC(=O)N[C@@H](CCCN=C(N)N)C(=O)N[C@@H](CCCN=C(N)N)C(N)=O [RRGWARRLFFAYGRR]
[8]
  MIC: 5.4 µM and 8.6 µM
Acinetobacter baumannii
  MIC: 2.6 µM (≈ 5.12 µg/mL)
[10]
  MIC: > 30 µM
[11]
  MIC: 1.7 µM and 1.5 µM
[16]
  MIC: 1.5 µM and 2.2 µM
Klebsiella pneumoniae
  MIC: 1.2 µM (≈ 2.36 µg/mL)

## CC(C)C[C@H](NC(=O)[C@H](CCCN=C(N)N)NC(=O)[C@H](CCCCN)NC(=O)[C@H](CCCN=C(N)N)NC(=O)[C@@H](NC(=O)[C@H](Cc1c[nH]c2ccccc12)NC(=O)[C@H](CCCCN)NC(=O)[C@H](CCCN=C(N)N)NC(=O)[C@H](CC(C)C)NC(=O)[C@H](Cc1c[nH]c2ccccc12)NC(=O)[C@@H](N)CCCN=C(N)N)[C@@H](C)O)C(=O)N[C@@H](CCCCN)C(N)=O [RWLRKWTRKRLK]
[10]
  MIC: 32 µM (≈ 55.2 µg/mL)
[15]
  MIC: ≥ 64 µM
[3]
  MIC: 64 µM (≈ 110 µg/mL)
Escherichia coli UB1005
  MIC: 16 µM (≈ 27.6 µg/mL)
[4]
  MIC: 16 µM (≈ 27.6 µg/mL)
[13]
  MIC: 16 µM (≈ 27.6 µg/mL)

## CC(C)C[C@H](NC(=O)[C@@H]1CCCN1C(=O)[C@H](CCCN=C(N)N)NC(=O)[C@H](Cc1ccc(O)cc1)NC(=O)[C@@H](NC(=O)[C@@H]1CCCN1C(=O)[C@H](CCCN=C(N)N)NC(=O)[C@H](Cc1ccc(O)cc1)NC(=O)[C@@H]1CCCN1C(=O)[C@@H]1CCCN1C(=O)[C@@H]1CCCN1C(=O)[C@H](CCCN=C(N)N)NC(=O)[C@H](Cc1ccc(O)cc1)NC(=O)[C@@H](NC(=O)[C@H](CC(N)=O)NC(=O)[C@@H](N)CO)C(C)C)C(C)C)C(=O)N[C@@H](CCCN=C(N)N)C(=O)N[C@@H](CCCN=C(N)N)C(=O)N1CCC[C@H]1C(=O)NCC(=O)N[C@@H](Cc1ccc(O)cc1)C(=O)N[C@@H](CCCN=C(N)N)C(=O)N1CCC[C@H]1C(N)=O [SNVYRPPPYRPVYRPLRRPGYRP]
Acinetobacter baumannii
  MIC: 2 µM (≈ 5.71 µg/mL)
[3]
  MIC: 2 µM (≈ 5.71 µg/mL)
Escherichia coli
  MIC: 2 µM (≈ 5.71 µg/mL)
[11]
  MIC: 2 µM (≈ 5.71 µg/mL)
Staphylococcus aureus
  MIC: 32 µM (≈ 91.4 µg/mL)
[4]
  MIC: 1 µM (≈ 2.86 µg/mL)

## C[C@@H](O)[C@H](NC(=O)[C@H](CCCN=C(N)N)NC(=O)[C@H](CCCN=C(N)N)NC(=O)[C@H](CCCN=C(N)N)NC(=O)[C@@H]1CCCN1C(=O)[C@@H](N)CO)C(=O)N1CCC[C@H]1C(=O)N[C@@H](CO)C(=O)N1CCC[C@H]1C(=O)N[C@@H](CCCN=C(N)N)C(=O)N[C@@H](CCCN=C(N)N)C(=O)N[C@@H](CCCN=C(N)N)C(=O)N[C@@H](CCCN=C(N)N)C(=O)N[C@@H](CO)C(=O)N[C@@H](CCC(N)=O)C(=O)N[C@@H](CO)C(=O)N1CCC[C@H]1C(=O)N[C@@H](CCCN=C(N)N)C(=O)N[C@@H](CCCN=C(N)N)C(=O)N[C@@H](CCCN=C(N)N)C(N)=O [SPRRRTPSPRRRRSQSPRRR]
[2]
  MIC: 100 µM (≈ 254 µg/mL)
[10]
  MIC: > 100 µM
[17]
  MIC: ≥ 100 µM
[4]
  MIC: 25 µM (≈ 63.6 µg/mL)
